The source of these data is patent publication US11026931B2, “Methods for the administration of certain VMAT2 inhibitors” (Neurocrine Biosciences, Inc., priority 2018, dated 2021).

SMILES strings stand for the structures.

Data set [1] relates to ptosis (adrenergic activation). Nature of the data set: In vivo surrogate measure: ptosis.
In data set [2] the test system is prolactin release from the pituitary, modulated through the D2 dopamine receptor. Nature of the data set: In vivo surrogate measure: prolactin release.
A further data set concerns the target T1, human VMAT1 transporter (Homo sapiens, UniProt P54219).
T1 construct: expressed in transfected cells
T1 sequence (P54219 1-525): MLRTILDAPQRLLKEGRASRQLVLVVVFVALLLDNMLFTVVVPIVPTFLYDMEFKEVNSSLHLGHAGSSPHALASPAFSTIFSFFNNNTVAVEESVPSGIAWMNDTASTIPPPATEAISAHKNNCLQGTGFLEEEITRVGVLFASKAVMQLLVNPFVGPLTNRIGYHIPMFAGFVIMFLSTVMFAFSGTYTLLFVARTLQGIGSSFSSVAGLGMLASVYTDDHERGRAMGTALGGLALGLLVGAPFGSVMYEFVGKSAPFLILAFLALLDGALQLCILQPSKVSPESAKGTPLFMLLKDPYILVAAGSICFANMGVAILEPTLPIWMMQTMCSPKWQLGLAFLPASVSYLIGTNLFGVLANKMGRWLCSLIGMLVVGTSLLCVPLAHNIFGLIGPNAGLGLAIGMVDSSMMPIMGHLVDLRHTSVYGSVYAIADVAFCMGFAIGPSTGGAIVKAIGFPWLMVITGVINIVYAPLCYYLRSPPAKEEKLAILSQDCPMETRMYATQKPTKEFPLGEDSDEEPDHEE
Nature of the data set: Uptake in cells expressing VMAT1. The data set is classed as cell-based. To be noted: for inhibition of uptake through VMAT1: cells expressing VMAT1, test compounds at concentrations up to 10 μM; for effect on the uptake of monoamines through VMAT1: compared to reserpine.

Data set [3] can be described thus: Plasma concentrations of circulating metabolites of VBZ. The data set is classed as in vivo. To be noted: metabolites formed from VBZ.
The test system of data set [4] is dopamine, serotonin and adrenergic receptor subtypes. Nature of the data set: Radioligand binding assays for monoamine receptor subtypes. To be noted: for interaction with D1 and D2 receptors: radioligand binding assays and broad panel screen.
A short description of data set [5]: Analysis of hypersensitivity and dermatological reactions (case reports). Format: in vivo. From the text: A total of 17 cases of hypersensitivity reaction and/or dermatological findings and evidence for possible causal relationship with VBZ have been reported either spontaneously (6) or after solicitation (11). Of these 17 cases, 14 cases had both hypersensitivity reaction with dermatological findings (5 were serious and 9 were non-serious).

[6] abbreviates: of the 14 cases with hypersensitivity reaction and dermatological findings.

Consider `COc1cc2c(cc1OC)C1CC(=O)C(CC(C)C)CN1CC2` (racemic) [TBZ, 1,3,4,6,7, 11b-hexahydro-9,1O-dimethoxy-3-(2-methylpropyl)-2H-benzo(a)quinolizin-2-one, reference compound], for which, in data set [1], the induction of ptosis entry is reported as “induced ptosis in an equivalent manner”. In data set [2], the “increase in serum prolactin levels” value is reported as “increase in serum prolactin levels”. At human VMAT1 transporter, the “inhibition of uptake through VMAT1” value was “no significant inhibitory activity” and the “effect on the uptake of monoamines through VMAT1” value (“effect on the uptake” below) is reported as “no significant effect”.
For the compound `COc1cc2c(cc1OC)[C@H]1C[C@@H](OC(=O)[C@@H](N)C(C)(C)O)[C@H](CC(C)C)CN1CC2` [NBI-136110], the “half-lives of plasma concentration decline” value in data set [3] is listed as “half-lives similar to VBZ”. In addition, on human VMAT1 transporter, the “inhibition of uptake through VMAT1” value is “no significant inhibitory activity” and the “effect on the uptake” value is “no significant effect”.
Turning to `COc1cc2c(cc1OC)[C@H]1C[C@@H](O)[C@H](CC(C)C)CN1CC2` [R,R,R-DHTBZ, (2R, 3R,11bR)-3-isobutyl-9,10-dimethoxy-1,3,4,6,7,11b-hexahydro-2H-pyrido[2,1-a]isoquinolin-2-ol], the induction of ptosis result in data set [1] is recorded as “induced ptosis in an equivalent manner”. The “increase in serum prolactin levels” value in data set [2] is recorded as “induced a similar increase in serum prolactin levels as TBZ”. The “half-lives of plasma concentration decline” value in data set [3] is on record as “half-lives similar to VBZ”. Further, on human VMAT1 transporter, the “inhibition of uptake through VMAT1” value is given as “no significant inhibitory activity” and the “effect on the uptake” value is “no significant effect”. Also, the “specificity for the VMAT2 transporter” value in data set [4] (versus monoamine receptor subtypes and transporters) was “high specificity”.
Regarding `COc1cc2c(cc1OC)[C@@H]1C[C@@H](O)[C@@H](CC(C)C)CN1CC2` [R,S,S-DHTBZ], the “interaction with D1 and D2 receptors” value in data set [4] was “interact with D1 and D2 receptors”.
Take `COc1cc2c(cc1OC)[C@@H]1C[C@H](O)[C@@H](CC(C)C)CN1CC2` [S,S,S-DHTBZ]: the “interaction with D1 and D2 receptors” value in data set [4] is “interact with D1 and D2 receptors”.
For the compound `COc1cc2c(cc1OC)[C@H]1C[C@@H](OC(=O)[C@@H](N)C(C)C)[C@H](CC(C)C)CN1CC2` [Valbenazine, (S)-2-amino-3-methyl-butyric acid (2R, 3R,11 bR)-3-isobutyl-9,10-dimethoxy-1,3,4,6,7,11b-hexahydro-2H-pyrido[2,1-a]isoquinolin-2-yl ester], the induction of ptosis result in data set [1] is recorded as “induced ptosis in an equivalent manner”. At human VMAT1 transporter, the “inhibition of uptake through VMAT1” value is recorded as “no significant inhibitory activity” and the “effect on the uptake” value is given as “no significant effect”. Also, the “association with hypersensitivity reactions” value in data set [5] (case reports received through 10 Oct. 2017) is “may be associated with hypersensitivity reactions with or without dermatological reactions”. In data set [5] (setting [6]), the non-serious cases is listed as 9 cases and the serious cases is 5 cases. Besides, the “cases with both hypersensitivity reaction and dermatological findings” value in data set [5] (of the 17 cases) was determined as 14 cases.
`COC(=O)[C@H]1[C@H]2C[C@@H]3c4[nH]c5cc(OC)ccc5c4CCN3C[C@H]2C[C@@H](OC(=O)c2cc(OC)c(OC)c(OC)c2)[C@@H]1OC` [reserpine, reference compound]: the “inhibition of uptake through VMAT1” value at human VMAT1 transporter is listed as “substantially inhibited uptake through VMAT1”.
